Measurements taken from PubChem BioAssay (NCI).
Several values for one entry are separate records, joined by “and”; a condition that tells them apart may be missing. Equal values may be shown once.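 Briefly, cells in 96-well plates were exposed to five compound concentrations for 48 h, and endpoints were estimated by linear interpolation. Abbreviation: GI50, concentration required for 50% inhibition of growth. TGI denotes the concentration required for complete inhibition of growth.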

Experiments:
Experiment in all cases: growth of human tumour cells (NCI), 48 h
BT-549 breast = tested on: BT-549 breast
NCI-H460 lung = tested on: NCI-H460 lung
NCI-H522 lung = tested on: NCI-H522 lung
MALME-3M melanoma = tested on: MALME-3M melanoma
HCC-2998 colon = tested on: HCC-2998 colon
DU-145 prostate = tested on: DU-145 prostate
SK-MEL-5 melanoma = tested on: SK-MEL-5 melanoma
SW-620 colon = tested on: SW-620 colon
HCT-15 colon = tested on: HCT-15 colon
MDA-N = tested on: MDA-N
SR leukemia = tested on: SR leukemia
SF-268 CNS = tested on: SF-268 CNS
PC-3 prostate = tested on: PC-3 prostate
786-0 renal = tested on: 786-0 renal
KM12 colon = tested on: KM12 colon
CAKI-1 renal = tested on: CAKI-1 renal
UO-31 renal = tested on: UO-31 renal

Row | Structure (SMILES) | TGI (BT-549 breast) | TGI (NCI-H460 lung) | TGI (NCI-H522 lung) | TGI (MALME-3M melanoma) | TGI (HCC-2998 colon) | TGI (DU-145 prostate) | TGI (SK-MEL-5 melanoma) | TGI (SW-620 colon) | TGI (HCT-15 colon) | TGI (MDA-N) | TGI (SR leukemia) | TGI (SF-268 CNS) | TGI (PC-3 prostate) | TGI (786-0 renal) | TGI (KM12 colon) | TGI (CAKI-1 renal) | TGI (UO-31 renal) | GI50 (KM12 colon)
1 | Clc1ccc(C2=Cc3nc2c(-c2ccccc2)c2ccc([nH]2)c(-c2ccccc2)c2nc(c(-c4ccccc4)c4ccc([nH]4)c3-c3ccccc3)C=C2)cc1 | > 62.5 µM | > 62.5 µM | > 62.5 µM | > 62.5 µM | > 62.5 µM | > 62.5 µM | > 62.5 µM | > 62.5 µM | > 62.5 µM | > 62.5 µM | > 62.5 µM | > 62.5 µM | > 62.5 µM | > 62.5 µM | > 62.5 µM | 49.9 µM | > 62.5 µM | –
2 | N#CC(C#N)=C(N)/C(C#N)=C/c1ccc(O)c(O)c1 | > 100 µM | > 100 µM | > 100 µM | > 100 µM | > 100 µM | > 100 µM | > 100 µM | > 100 µM | > 100 µM | > 100 µM | > 100 µM | > 100 µM | > 100 µM | > 100 µM | > 100 µM | > 100 µM | > 100 µM | –
3 | O=C(Cc1ccccc1)Nc1nc2ccc(Cl)cc2c2nc(-c3ccco3)nn12 | > 100 µM | > 100 µM | > 100 µM | > 100 µM | > 100 µM | > 100 µM | > 100 µM | > 100 µM | > 100 µM | > 100 µM | > 77.2 µM | > 100 µM | > 100 µM | > 100 µM | > 100 µM | > 100 µM | > 100 µM | –
4 | CC(=O)OC1OC(C2c3cccc(O)c3C(=O)c3c(O)cc(CO)cc32)C(O)C(O)C1O (stereo not given) | 22.6 µM and 47.1 µM | 13.4 µM and 12.4 µM | 18.8 µM and 16.7 µM | 19.5 µM and 25.3 µM | 5.81 µM and 6.58 µM | > 100 µM and 84.1 µM | 4.26 µM and 4.09 µM | 10.8 µM and 19.3 µM | 9.33 µM and 11.2 µM | 13.5 µM and 8.28 µM | > 100 µM and 33.1 µM | 21.8 µM and 33.6 µM | 10.5 µM and 12.4 µM | 17 µM and 16.2 µM | 4.54 µM and 4.23 µM | 7.51 µM and 7.82 µM | 22.5 µM and 21.3 µM | 0.811 µM and 0.17 µM
5 | N#CCc1nc(-c2cc3ccc(O)cc3oc2=O)cs1 | > 100 µM | > 100 µM | > 100 µM | > 100 µM | > 100 µM | > 100 µM | > 100 µM | > 100 µM | > 100 µM | > 100 µM | > 100 µM | > 100 µM | > 100 µM | > 100 µM | > 100 µM | > 100 µM | > 100 µM | –
6 | C/C(=N\NC(N)=S)C(CN1CCCCC1)C(C1=C(O)c2ccccc2OC1)c1ccccc1 (stereo not given) | > 100 µM | > 100 µM | > 100 µM | > 100 µM | > 100 µM | > 100 µM | > 100 µM | > 100 µM | > 100 µM | > 100 µM | > 100 µM | > 100 µM | > 100 µM | > 100 µM | > 100 µM | > 100 µM | > 100 µM | –
7 | Cc1cc(=O)[nH]c(Sc2ccc([N+](=O)[O-])cc2[N+](=O)[O-])n1 | 26.8 µM | > 59.5 µM | 22.9 µM | 35.7 µM | 30.6 µM | 43.5 µM | 31.3 µM | 18.1 µM | 28.4 µM | 40.8 µM | > 100 µM | > 54.3 µM | 49.7 µM | 32.9 µM | > 67.4 µM | 28.9 µM | 37.1 µM | –
